According to the NIST ThermoML archive (doi:10.1021/acs.jced.5b00860):

Details: for surface tension liquid-gas: Maximal bubble pressure; for viscosity / mass density / electrical conductivity: 101.33 kPa, Liquid; for viscosity: Concentric cylinders viscometry; for mass density: Vibrating tube method; for electrical conductivity: Alternating current cell with electrodes

CCCCn1cc[n+](C)c1C.O=S(=O)([O-])O [1-butyl-2,3-dimethylimidazolium hydrogen sulfate]
Details | electrical conductivity [S/m] | mass density [kg/m3] | surface tension liquid-gas [mN/m] | viscosity [mPa·s]
288.15 K | – | 1217.09 | 45.3 | 628.5
293.15 K | – | 1213.74 | 45 | 469.7
298.15 K | 0.1 | 1210.61 | 44.8 | 355.2
303.15 K | 0.135 | 1207.35 | 44.5 | 271.3
308.15 K | 0.179 | 1203.89 | 44.2 | 206.3
313.15 K | 0.231 | 1200.63 | 43.9 | 157.2
318.15 K | 0.292 | 1197.49 | 43.7 | 121.8
323.15 K | 0.36 | 1194.03 | 43.4 | 95.86
328.15 K | 0.441 | 1190.8 | 43.1 | 74.49
333.15 K | 0.531 | 1187.57 | 42.8 | 60.7
338.15 K | 0.631 | 1184.29 | 42.6 | 46.52
343.15 K | 0.739 | 1180.99 | 42.3 | 38.13

CCCCn1cc[n+](C)c1.O=P([O-])(O)O [1-butyl-3-methylimidazolium dihydrogen phosphate]
Details | electrical conductivity [S/m] | mass density [kg/m3] | surface tension liquid-gas [mN/m] | viscosity [mPa·s]
288.15 K | 0.303 | 1183.24 | 44.2 | 198.7
293.15 K | 0.359 | 1179.91 | 43.9 | 159
298.15 K | 0.419 | 1176.54 | 43.6 | 125.6
303.15 K | 0.483 | 1173.18 | 43.2 | 101.1
308.15 K | 0.555 | 1169.69 | 42.9 | 80.78
313.15 K | 0.628 | 1166.3 | 42.6 | 65.21
318.15 K | 0.707 | 1162.8 | 42.3 | 53.62
323.15 K | 0.788 | 1159.53 | 42 | 43.67
328.15 K | 0.868 | 1156.13 | 41.7 | 36.75
333.15 K | 0.965 | 1152.67 | 41.4 | 29.77
338.15 K | 1.06 | 1149.36 | 41.1 | 25.21
343.15 K | 1.16 | 1146.03 | 40.8 | 20.96

CCCCn1cc[n+](C)c1.O=C([O-])O [1-butyl-3-methylimidazolium hydrogen carbonate]
Details | electrical conductivity [S/m] | mass density [kg/m3] | surface tension liquid-gas [mN/m] | viscosity [mPa·s]
288.15 K | 0.274 | 1164.1 | 34.9 | 122.9
293.15 K | 0.322 | 1160.5 | 34.4 | 94.8
298.15 K | 0.376 | 1157.08 | 34 | 73.73
303.15 K | 0.439 | 1153.64 | 33.5 | 57.64
308.15 K | 0.496 | 1150 | 33.1 | 45.33
313.15 K | 0.557 | 1146.51 | 32.6 | 35.86
318.15 K | 0.622 | 1142.95 | 32.2 | 28.85
323.15 K | 0.689 | 1139.45 | 31.7 | 22.93
328.15 K | 0.755 | 1136.1 | 31.2 | 18.54
333.15 K | 0.823 | 1132.53 | 30.8 | 14.81
338.15 K | 0.893 | 1128.92 | 30.4 | 11.88
343.15 K | 0.963 | 1125.52 | 29.9 | 10.04

CCn1cc[n+](C)c1C.O=S(=O)([O-])O [1-ethyl-2,3-dimethylimidazolium hydrogen sulfate]
Details | electrical conductivity [S/m] | mass density [kg/m3] | surface tension liquid-gas [mN/m] | viscosity [mPa·s]
288.15 K | – | 1261.94 | 50.4 | 375
293.15 K | – | 1258.09 | 50.1 | 263.6
298.15 K | 0.15 | 1254.43 | 49.8 | 186
303.15 K | 0.193 | 1250.77 | 49.5 | 134.9
308.15 K | 0.244 | 1247.08 | 49.3 | 98.41
313.15 K | 0.308 | 1243.3 | 49 | 72.94
318.15 K | 0.377 | 1239.59 | 48.7 | 53.72
323.15 K | 0.458 | 1235.8 | 48.4 | 40.12
328.15 K | 0.554 | 1232.2 | 48.1 | 30.2
333.15 K | 0.665 | 1228.52 | 47.8 | 22.37
338.15 K | 0.787 | 1224.82 | 47.5 | 17.96
343.15 K | 0.925 | 1221.18 | 47.2 | 12.57

CCCCC[n+]1ccn(C)c1.O=P([O-])(O)O [1-methyl-3-pentylimidazolium dihydrogen phosphate]
Details | electrical conductivity [S/m] | mass density [kg/m3] | surface tension liquid-gas [mN/m] | viscosity [mPa·s]
288.15 K | 0.164 | 1148.62 | 41.8 | 327.8
293.15 K | 0.201 | 1145.42 | 41.5 | 259.1
298.15 K | 0.243 | 1142.29 | 41.2 | 205
303.15 K | 0.29 | 1139.09 | 40.9 | 162.6
308.15 K | 0.341 | 1135.81 | 40.6 | 130
313.15 K | 0.398 | 1132.55 | 40.3 | 103.3
318.15 K | 0.457 | 1129.43 | 40 | 84.04
323.15 K | 0.523 | 1126.27 | 39.7 | 68.45
328.15 K | 0.588 | 1122.94 | 39.3 | 56.55
333.15 K | 0.665 | 1119.93 | 39 | 46.91
338.15 K | 0.744 | 1116.63 | 38.7 | 38.55
343.15 K | 0.825 | 1113.49 | 38.4 | 31.43

CCC[n+]1ccn(C)c1.O=P([O-])(O)O [1-methyl-3-propylimidazolium dihydrogen phosphate]
Details | electrical conductivity [S/m] | mass density [kg/m3] | surface tension liquid-gas [mN/m] | viscosity [mPa·s]
288.15 K | 0.469 | 1202.41 | 46.4 | 99.38
293.15 K | 0.536 | 1198.96 | 46.1 | 78.41
298.15 K | 0.613 | 1195.45 | 45.8 | 61.92
303.15 K | 0.693 | 1191.95 | 45.5 | 49.58
308.15 K | 0.785 | 1188.45 | 45.2 | 39.3
313.15 K | 0.879 | 1184.95 | 44.9 | 32.16
318.15 K | 0.977 | 1181.43 | 44.6 | 25.81
323.15 K | 1.08 | 1177.89 | 44.3 | 21.02
328.15 K | 1.19 | 1174.36 | 44 | 17.17
333.15 K | 1.3 | 1170.8 | 43.7 | 13.85
338.15 K | 1.41 | 1167.24 | 43.4 | 11.43
343.15 K | 1.55 | 1163.66 | 43.1 | 10.04

CCCCCn1cc[n+](C)c1C.O=S(=O)([O-])O [2,3-dimethyl-1-pentylimidazolium hydrogen sulfate]
Details | electrical conductivity [S/m] | mass density [kg/m3] | surface tension liquid-gas [mN/m] | viscosity [mPa·s]
288.15 K | – | 1196.47 | 42.5 | 772.4
293.15 K | – | 1193.23 | 42.2 | 597
298.15 K | 0.075 | 1190.07 | 42 | 462.8
303.15 K | 0.105 | 1186.89 | 41.7 | 358.7
308.15 K | 0.145 | 1183.89 | 41.5 | 281.1
313.15 K | 0.197 | 1180.69 | 41.2 | 224.2
318.15 K | 0.257 | 1177.69 | 40.9 | 176
323.15 K | 0.324 | 1174.61 | 40.7 | 140.1
328.15 K | 0.399 | 1171.29 | 40.4 | 113
333.15 K | 0.485 | 1168.33 | 40.1 | 90
338.15 K | 0.573 | 1165.21 | 39.9 | 73.77
343.15 K | 0.675 | 1162.18 | 39.6 | 57.54

CCCn1cc[n+](C)c1C.O=S(=O)([O-])O [2,3-dimethyl-1-propylimidazolium hydrogen sulfate]
Details | electrical conductivity [S/m] | mass density [kg/m3] | surface tension liquid-gas [mN/m] | viscosity [mPa·s]
288.15 K | – | 1239.79 | 47.7 | 500.4
293.15 K | – | 1236.23 | 47.4 | 362.3
298.15 K | 0.123 | 1232.82 | 47.2 | 263.7
303.15 K | 0.162 | 1229.24 | 46.9 | 194.2
308.15 K | 0.211 | 1225.73 | 46.6 | 142.2
313.15 K | 0.267 | 1222.13 | 46.3 | 107
318.15 K | 0.333 | 1218.82 | 46.1 | 81.27
323.15 K | 0.409 | 1215.29 | 45.8 | 62.04
328.15 K | 0.496 | 1211.74 | 45.5 | 47.83
333.15 K | 0.6 | 1208.35 | 45.2 | 35.71
338.15 K | 0.711 | 1204.81 | 44.9 | 27.47
343.15 K | 0.832 | 1201.46 | 44.7 | 21.17

CCCCCn1cc[n+](C)c1.O=C([O-])O [3-methyl-1-pentylimidazolium hydrogen carbonate]
Details | electrical conductivity [S/m] | mass density [kg/m3] | surface tension liquid-gas [mN/m] | viscosity [mPa·s]
288.15 K | 0.143 | 1148.91 | 31.9 | 179.6
293.15 K | 0.193 | 1145.21 | 31.4 | 138.9
298.15 K | 0.248 | 1141.79 | 30.9 | 108.6
303.15 K | 0.305 | 1138.28 | 30.4 | 85.09
308.15 K | 0.367 | 1134.77 | 29.9 | 66.77
313.15 K | 0.428 | 1131.33 | 29.4 | 53.12
318.15 K | 0.489 | 1127.75 | 29 | 42.53
323.15 K | 0.553 | 1124.28 | 28.5 | 33.29
328.15 K | 0.612 | 1120.73 | 28 | 26.92
333.15 K | 0.671 | 1117.27 | 27.5 | 21.42
338.15 K | 0.733 | 1113.75 | 26.9 | 17.65
343.15 K | 0.794 | 1110.3 | 26.5 | 14.71
